Assay [1] deals with SK-OV-3. Description: Cytotoxicity against human SKOV3 cells after 48 hrs by SRB assay. It counts as functional. (In SRB staining, fixed cells bind dye roughly in proportion to their protein.)
The subject of assay [2] is DU-145. Kind of assay: Cytotoxicity against human DU145 cells after 48 hrs by SRB assay. It counts as functional.
Assay [3] deals with NCI-H460. Kind of assay: Cytotoxicity against human NCI-H460 cells after 48 hrs by SRB assay. It counts as functional.
A short description of assay [4]: Inhibition of calf brain tubulin polymerization after 15 mins by UV-visible spectrophotometry. On the set-up: species or system Bos taurus.

Bounds are passed on as bounds.

As to `COc1ccc2c(c1Cl)CCCC=C2c1cc(OC)c(OC)c(OC)c1`, the GI50 was 44.4 nM in assay [1] (Homo sapiens, SK-OV-3, 48 h); 152 nM in assay [2] (Homo sapiens, DU-145, 48 h); 71.3 nM in assay [3] (Homo sapiens, NCI-H460, 48 h). In addition, in assay [4], the IC50 was 930 nM.

Take `COc1ccc2c(c1O)CCCC=C2c1cc(OC)c(OC)c(OC)c1`: the concentration for 50% growth inhibition (GI50) stood at 0.0543 nM in assay [1] (Homo sapiens, SK-OV-3, 48 h); 0.0249 nM in assay [2] (Homo sapiens, DU-145, 48 h); 0.0418 nM in assay [3] (Homo sapiens, NCI-H460, 48 h). This molecule also registered an IC50 in assay [4] of 1400 nM.

As to `COc1ccc2c(c1N)CCCC=C2c1cc(OC)c(OC)c(OC)c1`, the GI50 in assay [1] (Homo sapiens, SK-OV-3, 48 h) turned out to be 0.102 nM; in assay [3] (Homo sapiens, NCI-H460, 48 h) it was 2.8 nM. In assay [4], this molecule returned an IC50 of 1200 nM.

On to `COc1ccc(/C=C\c2cc(OC)c(OC)c(OC)c2)cc1OP(=O)(O)O` [FOSBRETABULIN DISODIUM], for which the concentration for 50% growth inhibition (GI50) worked out at 1.19 nM in assay [1] (Homo sapiens, SK-OV-3, 48 h); 3.23 nM in assay [2] (Homo sapiens, DU-145, 48 h); 1.94 nM in assay [3] (Homo sapiens, NCI-H460, 48 h). In assay [4], this molecule came in with an IC50 above 40000 nM.

Consider `COc1cc(C2=CCCCc3c2cc(OC)c(OC)c3O)cc(OC)c1OC`, for which the concentration for 50% growth inhibition (GI50) in assay [1] (Homo sapiens, SK-OV-3, 48 h) amounted to 18100 nM; in assay [2] (Homo sapiens, DU-145, 48 h), 38400 nM; in assay [3] (Homo sapiens, NCI-H460, 48 h) it was 25900 nM. Further, in assay [4], the half-maximal inhibitory concentration (IC50) is above 40000 nM.

For the molecule `COc1cc(C2=CCCCc3c2ccc(OC)c3OP(=O)(O)O)cc(OC)c1OC`, the 50% growth inhibitory concentration (GI50) in assay [2] (Homo sapiens, DU-145, 48 h) was 9.51 nM; in assay [3] (Homo sapiens, NCI-H460, 48 h) it was 7.96 nM. Moreover, in assay [4], the IC50 was above 40000 nM.

Consider `COc1ccc2c(c1F)CCCC=C2c1cc(OC)c(OC)c(OC)c1`, for which the 50% growth inhibitory concentration (GI50) in assay [1] (Homo sapiens, SK-OV-3, 48 h) came to 7.51 nM; in assay [2] (Homo sapiens, DU-145, 48 h), 18.9 nM; in assay [3] (Homo sapiens, NCI-H460, 48 h), 5.47 nM. For the same molecule, in assay [4], the midpoint of inhibition, the IC50, lay at 890 nM.

Turning to `COc1ccc(C2=CCCCc3c2ccc(OC)c3O)cc1OC`, the concentration for 50% growth inhibition (GI50) in assay [1] (Homo sapiens, SK-OV-3, 48 h) worked out at 33.4 nM; in assay [2] (Homo sapiens, DU-145, 48 h), 109 nM; in assay [3] (Homo sapiens, NCI-H460, 48 h), 262 nM. The molecule also gave an IC50 in assay [4] of 740 nM.

As for `COc1cc2c(c(OC)c1O)CCCC=C2c1cc(OC)c(OC)c(OC)c1`, the 50% growth inhibitory concentration (GI50) turned out to be 7130 nM in assay [1] (Homo sapiens, SK-OV-3, 48 h); 15700 nM in assay [2] (Homo sapiens, DU-145, 48 h); 18000 nM in assay [3] (Homo sapiens, NCI-H460, 48 h). This molecule also yielded a half-maximal inhibitory concentration (IC50) in assay [4] above 40000 nM.

With `COc1cc(C2=CCCCc3ccccc32)cc(OC)c1OC`, the 50% growth inhibitory concentration (GI50) in assay [1] (Homo sapiens, SK-OV-3, 48 h) turned out to be 19100 nM; in assay [2] (Homo sapiens, DU-145, 48 h), 22000 nM; in assay [3] (Homo sapiens, NCI-H460, 48 h), 32500 nM. Further, the IC50 in assay [4] is above 40000 nM.

On to `COc1ccc2c(c1NC(=O)[C@@H](N)CO)CCCC=C2c1cc(OC)c(OC)c(OC)c1` [listing 1 of 2 here], for which the concentration for 50% growth inhibition (GI50) in assay [1] (Homo sapiens, SK-OV-3, 48 h) is 35000 nM; in assay [2] (Homo sapiens, DU-145, 48 h), 69400 nM; in assay [3] (Homo sapiens, NCI-H460, 48 h), 53800 nM.

In the case of `COc1ccc(/C=C\c2cc(OC)c(OC)c(OC)c2)cc1O` [COMBRETASTATIN A4], the GI50 in assay [1] (Homo sapiens, SK-OV-3, 48 h) was determined as 4.55 nM; in assay [2] (Homo sapiens, DU-145, 48 h) it was 3.27 nM; in assay [3] (Homo sapiens, NCI-H460, 48 h), 2.23 nM.

Regarding `COc1ccc2c(c1NC(=O)[C@@H](N)CO)CCCC=C2c1cc(OC)c(OC)c(OC)c1` [listing 2 of 2 here], the 50% growth inhibitory concentration (GI50) in assay [1] was 36800 nM; in assay [2] it was 70500 nM; in assay [3], 39000 nM.

In the case of `COc1ccc(C2=CCCCc3c2ccc(OC)c3OC)cc1OC`, the concentration for 50% growth inhibition (GI50) is above 89500 nM in assay [1] (Homo sapiens, SK-OV-3, 48 h); 42500 nM in assay [2] (Homo sapiens, DU-145, 48 h); above 136000 nM in assay [3] (Homo sapiens, NCI-H460, 48 h). This molecule had a half-maximal inhibitory concentration (IC50) in assay [4] above 40000 nM.

The GI50 is the concentration that inhibits growth by half. Broadly, the IC50 is the concentration at which inhibition is half-maximal. Read a high IC50 as lower potency.

For the origin of these results see ChEMBL document CHEMBL3085635, “Synthesis of structurally diverse benzosuberene analogues and their biological evaluation as anti-cancer agents” (Bioorg Med Chem, 2013).
